Each molecule was assayed against T1, Adrenergic receptor alpha-2 (Rattus norvegicus, UniProt P22086+P19328+P22909) (assay: Antagonistic activity against alpha-2 adrenergic receptor in rat vas deferens).
T1 sequence (P22086 whole entry): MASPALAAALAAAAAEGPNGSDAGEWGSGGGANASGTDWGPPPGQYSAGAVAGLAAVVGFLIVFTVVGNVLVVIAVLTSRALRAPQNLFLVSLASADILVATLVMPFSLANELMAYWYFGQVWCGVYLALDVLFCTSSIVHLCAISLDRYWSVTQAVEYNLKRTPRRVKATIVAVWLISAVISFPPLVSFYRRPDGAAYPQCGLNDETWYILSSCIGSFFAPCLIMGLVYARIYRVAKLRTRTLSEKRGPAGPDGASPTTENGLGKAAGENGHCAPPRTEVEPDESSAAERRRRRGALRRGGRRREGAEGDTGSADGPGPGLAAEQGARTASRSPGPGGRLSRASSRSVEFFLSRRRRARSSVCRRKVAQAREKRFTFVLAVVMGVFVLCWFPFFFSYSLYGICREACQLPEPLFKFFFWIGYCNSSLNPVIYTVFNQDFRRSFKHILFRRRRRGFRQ
T1 sequence (P19328 whole entry): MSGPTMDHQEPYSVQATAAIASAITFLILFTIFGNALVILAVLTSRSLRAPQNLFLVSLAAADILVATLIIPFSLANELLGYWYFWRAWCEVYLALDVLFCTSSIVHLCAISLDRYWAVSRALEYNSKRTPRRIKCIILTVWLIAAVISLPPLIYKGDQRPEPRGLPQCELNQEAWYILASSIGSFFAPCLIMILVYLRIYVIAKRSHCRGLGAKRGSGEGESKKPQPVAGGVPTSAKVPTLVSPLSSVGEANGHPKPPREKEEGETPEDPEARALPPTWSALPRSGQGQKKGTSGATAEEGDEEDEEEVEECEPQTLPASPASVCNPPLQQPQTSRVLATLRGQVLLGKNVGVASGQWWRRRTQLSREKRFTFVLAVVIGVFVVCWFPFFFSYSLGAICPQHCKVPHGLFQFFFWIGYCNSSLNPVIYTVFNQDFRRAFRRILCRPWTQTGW
T1 sequence (P22909 whole entry): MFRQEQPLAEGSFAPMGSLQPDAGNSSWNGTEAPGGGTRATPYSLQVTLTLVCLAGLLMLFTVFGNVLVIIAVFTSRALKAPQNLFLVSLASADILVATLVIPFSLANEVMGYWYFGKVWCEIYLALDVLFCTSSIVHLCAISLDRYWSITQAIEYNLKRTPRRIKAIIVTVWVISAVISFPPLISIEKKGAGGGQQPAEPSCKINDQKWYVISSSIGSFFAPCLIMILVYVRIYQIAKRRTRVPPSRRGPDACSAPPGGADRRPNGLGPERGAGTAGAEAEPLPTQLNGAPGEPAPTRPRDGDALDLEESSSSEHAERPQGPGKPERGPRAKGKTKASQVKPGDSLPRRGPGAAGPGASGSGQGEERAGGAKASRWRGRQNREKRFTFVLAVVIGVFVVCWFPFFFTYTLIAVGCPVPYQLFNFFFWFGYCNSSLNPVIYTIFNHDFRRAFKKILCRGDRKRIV
Assay type: functional, tissue-based

In order of falling pA2:
1. CN([C@@H]1CCN2CCc3ccccc3[C@@H]2C1)S(=O)(=O)c1cccc2cccnc12  8.46
2. CN([C@@H]1CCN2CCc3ccccc3[C@@H]2C1)S(=O)(=O)CCl  8.26
3. CN([C@@H]1CCN2CCc3ccccc3[C@@H]2C1)S(=O)(=O)c1cccnc1  8.22
4. CC(C)CS(=O)(=O)N(C)[C@@H]1CCN2CCc3ccccc3[C@@H]2C1 (stereo in doubt; 16)  8.16
5. Cc1ccc(S(=O)(=O)N(C)[C@@H]2CCN3CCc4ccccc4[C@@H]3C2)cc1  8.1
6. CCCS(=O)(=O)N(C)[C@@H]1CCN2CCc3ccccc3[C@@H]2C1 (stereo in doubt; 10)  8.08
7. CN([C@@H]1CCN2CCc3ccccc3[C@@H]2C1)S(C)(=O)=O (stereo in doubt)  8.05
8. CN([C@@H]1CCN2CCc3ccccc3[C@@H]2C1)S(=O)(=O)c1ccsc1  7.94
9. CN([C@@H]1CCN2CCc3ccccc3[C@@H]2C1)S(C)(=O)=O (stereo in doubt; 6)  7.81
10. CCS(=O)(=O)N(C)[C@@H]1CCN2CCc3ccccc3[C@@H]2C1  7.7
11. CCN([C@@H]1CCN2CCc3ccccc3[C@@H]2C1)S(=O)(=O)CC(C)C  7.61
12. CN([C@@H]1CCN2CCc3ccccc3[C@@H]2C1)S(=O)(=O)CCN1CCCCC1  7.5
13. CCN([C@@H]1CCN2CCc3ccccc3[C@@H]2C1)S(C)(=O)=O  7.39
14. CN([C@@H]1CCN2CCc3ccccc3[C@@H]2C1)S(=O)(=O)C(F)(F)F  7.15
15. CN([C@@H]1CCN2CCc3ccccc3[C@@H]2C1)S(N)(=O)=O  7.1
16. CCCN([C@@H]1CCN2CCc3ccccc3[C@@H]2C1)S(C)(=O)=O  6.77
17. COP(=O)(OC)N(C)[C@@H]1CCN2CCc3ccccc3[C@@H]2C1  6.63
18. CN([C@@H]1CCN2CCc3ccccc3C2C1)S(C)(=O)=O (some centres not stated)  5.7

Each molecule was assayed against T2, Adrenergic receptor alpha-1 (Rattus norvegicus, UniProt P15823+P23944+P43140) (assay: Antagonistic activity against alpha-1 adrenergic receptor in isolated rat anococcygeus muscle).
T2 sequence (P15823 whole entry): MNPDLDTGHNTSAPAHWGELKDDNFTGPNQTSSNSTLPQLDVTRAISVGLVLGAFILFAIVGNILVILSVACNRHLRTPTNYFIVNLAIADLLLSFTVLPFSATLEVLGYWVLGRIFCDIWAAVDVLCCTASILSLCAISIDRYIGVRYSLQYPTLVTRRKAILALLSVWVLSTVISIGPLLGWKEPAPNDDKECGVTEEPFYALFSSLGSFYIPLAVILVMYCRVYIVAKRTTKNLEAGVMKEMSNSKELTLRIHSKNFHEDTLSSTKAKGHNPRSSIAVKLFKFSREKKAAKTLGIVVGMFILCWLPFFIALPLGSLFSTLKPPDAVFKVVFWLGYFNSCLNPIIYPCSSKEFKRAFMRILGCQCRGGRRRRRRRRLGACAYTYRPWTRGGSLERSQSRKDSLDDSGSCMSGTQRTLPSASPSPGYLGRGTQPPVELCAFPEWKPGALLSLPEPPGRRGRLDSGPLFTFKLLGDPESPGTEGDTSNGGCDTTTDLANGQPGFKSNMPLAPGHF
T2 sequence (P23944 whole entry): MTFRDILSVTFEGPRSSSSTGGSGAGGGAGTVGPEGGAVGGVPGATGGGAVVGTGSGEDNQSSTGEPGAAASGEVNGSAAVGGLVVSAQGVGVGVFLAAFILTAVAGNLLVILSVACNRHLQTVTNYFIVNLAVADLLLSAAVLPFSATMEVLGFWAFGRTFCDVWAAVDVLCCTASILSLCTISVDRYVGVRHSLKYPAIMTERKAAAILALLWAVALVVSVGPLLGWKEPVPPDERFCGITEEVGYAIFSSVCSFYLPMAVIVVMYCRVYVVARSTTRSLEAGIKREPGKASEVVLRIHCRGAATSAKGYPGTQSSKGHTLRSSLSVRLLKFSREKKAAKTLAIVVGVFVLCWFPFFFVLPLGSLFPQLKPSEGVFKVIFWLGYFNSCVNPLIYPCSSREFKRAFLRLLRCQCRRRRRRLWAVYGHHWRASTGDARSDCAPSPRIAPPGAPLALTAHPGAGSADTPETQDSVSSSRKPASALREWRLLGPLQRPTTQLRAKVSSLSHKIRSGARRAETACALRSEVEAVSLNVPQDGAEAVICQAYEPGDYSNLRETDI
T2 sequence (P43140 whole entry): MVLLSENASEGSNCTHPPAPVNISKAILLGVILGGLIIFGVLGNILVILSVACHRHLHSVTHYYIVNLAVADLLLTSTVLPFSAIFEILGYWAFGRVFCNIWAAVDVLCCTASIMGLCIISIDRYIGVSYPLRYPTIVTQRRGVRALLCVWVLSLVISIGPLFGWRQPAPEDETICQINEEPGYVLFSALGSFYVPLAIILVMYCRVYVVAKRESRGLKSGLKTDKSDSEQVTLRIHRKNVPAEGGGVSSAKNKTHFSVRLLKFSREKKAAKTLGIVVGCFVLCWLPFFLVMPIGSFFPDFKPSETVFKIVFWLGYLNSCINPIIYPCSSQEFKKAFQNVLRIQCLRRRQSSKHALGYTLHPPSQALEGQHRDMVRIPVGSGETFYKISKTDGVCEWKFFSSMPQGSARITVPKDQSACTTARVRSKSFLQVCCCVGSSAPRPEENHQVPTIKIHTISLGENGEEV
Assay type: functional, tissue-based

In order of rising pA2:
1. CN([C@@H]1CCN2CCc3ccccc3[C@@H]2C1)S(=O)(=O)C(F)(F)F  5.49
2. CN([C@@H]1CCN2CCc3ccccc3[C@@H]2C1)S(N)(=O)=O  5.7
3. CN([C@@H]1CCN2CCc3ccccc3[C@@H]2C1)S(C)(=O)=O (stereo in doubt; 6)  6.04
4. CN([C@@H]1CCN2CCc3ccccc3[C@@H]2C1)S(=O)(=O)CCN1CCCCC1  6.11
5. CCS(=O)(=O)N(C)[C@@H]1CCN2CCc3ccccc3[C@@H]2C1  6.17
6. CCCS(=O)(=O)N(C)[C@@H]1CCN2CCc3ccccc3[C@@H]2C1 (stereo in doubt; 10)  6.34
7. CCCN([C@@H]1CCN2CCc3ccccc3[C@@H]2C1)S(C)(=O)=O  6.44
8. CN([C@@H]1CCN2CCc3ccccc3[C@@H]2C1)S(C)(=O)=O (stereo in doubt)  6.48
9. CC(C)CS(=O)(=O)N(C)[C@@H]1CCN2CCc3ccccc3[C@@H]2C1 (stereo in doubt; 16)  6.49
10. COC(=O)N(C)[C@@H]1CCN2CCc3ccccc3[C@@H]2C1  6.56
11. CN([C@@H]1CCN2CCc3ccccc3[C@@H]2C1)S(=O)(=O)CCl  6.61
12. CCN([C@@H]1CCN2CCc3ccccc3[C@@H]2C1)S(C)(=O)=O  6.61
13. CN([C@@H]1CCN2CCc3ccccc3[C@@H]2C1)S(=O)(=O)c1ccsc1  6.65
14. CCN([C@@H]1CCN2CCc3ccccc3[C@@H]2C1)S(=O)(=O)CC(C)C  6.65
15. CN([C@@H]1CCN2CCc3ccccc3[C@@H]2C1)S(=O)(=O)c1cccnc1  6.73
16. CN([C@@H]1CCN2CCc3ccccc3[C@@H]2C1)S(=O)(=O)c1cccc2cccnc12  6.84
17. Cc1ccc(S(=O)(=O)N(C)[C@@H]2CCN3CCc4ccccc4[C@@H]3C2)cc1  6.84
18. CCOC(=O)N(C)[C@@H]1CCN2CCc3ccccc3[C@@H]2C1  6.93
19. CC(C)COC(=O)N(C)[C@@H]1CCN2CCc3ccccc3[C@@H]2C1  7

From ChEMBL document CHEMBL1124159, “Synthesis and structure-activity relationships of 2-sulfonamido-1,3,4,6,7,11b alpha-hexahydro-2H-benzo[a]quinolizines as alpha 2-adrenoceptor antagonists” (J Med Chem, 1988)
